The record followed here is patent publication US20230374073A1, “DIMERIC MILLA IMMUNOMODULATORS” (Bristol-Myers Squibb Company, priority 2020, published 2023).

Starred links: 1 amine or outer side, 2 acyl side, 3 side chain; linkers in the order of their positions; H or OH if unused. Positions of bridges follow the written chain, without caps; N, C: chain ends. Non-standard residues stand in square brackets, D forms with d. Residues, ends and D or L forms follow the SMILES beside them. Chains are numbered I, II in the order given. Trp(1-CH2COOH) = N[C@@H](Cc1cn(CC(=O)O)c2ccccc12)C(=O)O; X1 = O=C(NC1CCC(CC2CCC(NC(=O)[*:2])CC2)CC1)[*:1]; Hyp = O=C(O)[C@@H]1C[C@@H](O)CN1; NMeNle = CCCC[C@H](NC)C(=O)O; NMeA = CN[C@@H](C)C(=O)O; Dab = NCC[C@H](N)C(=O)O; Dap = NC[C@H](N)C(=O)O

The assay deals with T1, PD-1/PD-L1 (Homo sapiens, UniProt Q9NZQ7).
T1 construct: TVMV protease site (C); made in house; host or cells: HEK293T cells
T1 sequence (Q9NZQ7 18-239): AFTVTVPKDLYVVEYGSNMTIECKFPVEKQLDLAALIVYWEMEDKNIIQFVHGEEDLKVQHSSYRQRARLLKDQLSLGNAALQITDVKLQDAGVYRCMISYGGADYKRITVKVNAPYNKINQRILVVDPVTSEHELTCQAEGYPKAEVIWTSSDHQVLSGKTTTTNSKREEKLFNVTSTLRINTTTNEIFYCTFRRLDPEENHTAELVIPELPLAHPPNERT
Briefly: PD-1/PD-L1 Homogenous Time-Resolved Fluorescence (HTRF) binding assay. From the text: The ability of the compounds of formula (I) to bind to PD-L1 was investigated using a PD-1/PD-L1 Homogenous Time-Resolved Fluorescence (HTRF) binding assay.
Homogenous Time-Resolved Fluorescence (HTRF) Binding Assay
The interaction of PD-1 and PD-L1 can be assessed using soluble, purified preparations of the extracellular domains of the two proteins. The PD-1 and PD-L1 protein extracellular domains were expressed as fusion proteins with detection tags, for PD-1, the tag was the Fc portion of Immunoglobulin (PD-1-Ig) and for PD-L1 it was the 6 histidine motif (PD-L1-His). All binding studies were performed in an HTRF assay buffer consisting of dPBS supplemented with 0.1% […] bovine serum albumin and 0.05% (v/v) Tween-20. For the h/PD-L1-His binding assay, inhibitors were pre-incubated with PD-L1-His (10 nM final) for 15 m in 4 μl of assay buffer, followed by addition of PD-1-Ig (20 nM final) in 1 μl of assay buffer and further incubation for 15 m. HTRF detection was achieved using europium crypate-labeled anti-Ig (1 nM final) and allophycocyanin (APC) labeled anti-His (20 nM final). Antibodies were diluted in HTRF detection buffer and 5 μl was dispensed on top of the binding reaction. […]
Table 1 lists the IC50 values for representative examples of this disclosure measured in the PD-1/PD-L1 Homogenous Time-Resolved Fluorescence (HTRF) binding assay.
Background: Time-resolved FRET reads energy transfer from a long-lived donor to a nearby acceptor.

Consider `CCCC[C@H]1C(=O)N(C)[C@@H](CCCC)C(=O)N[C@@H](CC(C)C)C(=O)N[C@H](C(=O)NCC(N)=O)CSCC(=O)N[C@@H](Cc2ccc(O)cc2)C(=O)N(C)[C@@H](C)C(=O)N[C@@H](CC(N)=O)C(=O)N2CCC[C@H]2C(=O)N[C@@H](CNC(=O)NC2CCC(CC3CCC(NC(=O)NC[C@@H]4NC(=O)[C@@H]5CCCN5C(=O)[C@H](CC(N)=O)NC(=O)[C@H](C)N(C)C(=O)[C@H](Cc5ccc(O)cc5)NC(=O)CSC[C@@H](C(=O)NCC(N)=O)NC(=O)[C@H](CC(C)C)NC(=O)[C@H](CCCC)N(C)C(=O)[C@H](CCCC)N(C)C(=O)[C@H](Cc5cn(CC(=O)O)c6ccccc56)NC(=O)[C@H](CCN)NC(=O)[C@H](Cc5c[nH]c6ccccc56)NC(=O)[C@@H]5C[C@@H](O)CN5C(=O)[C@H](CC(C)C)NC4=O)CC3)CC2)C(=O)N[C@@H](CC(C)C)C(=O)N2C[C@H](O)C[C@H]2C(=O)N[C@@H](Cc2c[nH]c3ccccc23)C(=O)N[C@@H](CCN)C(=O)N[C@@H](Cc2cn(CC(=O)O)c3ccccc23)C(=O)N1C` (stereo partly shown) [Compound 1002] (I: {CH2CO}-Y[NMeA]NP[Dap]L[Hyp]W[Dab][Trp(1-CH2COOH)][NMeNle][NMeNle]LCG-NH2 / II: {CH2CO}-Y[NMeA]NP[Dap]L[Hyp]W[Dab][Trp(1-CH2COOH)][NMeNle][NMeNle]LCG-NH2; linker I:5-II:5 via X1; thioether I:N-I:14, II:N-II:14), for which the half-inhibitory concentration (IC50) was 10 nM.

For orientation: IC50 means the concentration needed to halve the response being measured. High values mean lower potency, low ones higher potency.
